Read-outs that look alike come from different tables or passages of the source.
Assays:
[1] = test system: acetylcholine-induced bronchospasm; assay: protective effect against acetylcholine-induced bronchospasm in conscious guinea pigs; format: in vivo; details: oral, 30 minutes after administration, percentage of protected animals; for responders at 10 µmol/kg: 10 μmol/kg
Description: In addition, the bronchospasmolytic effect was tested on the "protective effect against acetylcholine-induced bronchospasm in conscious guinea pigs" model:
Guinea pigs (250-350 g) are exposed in a closed Plexiglass cylinder (volume […] ) to an acetylcholine mist (0.06% in 0.9% sodium chloride solution; Heyer Use 77 ultrasonic atomizer) before administration of the substance and twice at an interval of 20 minutes after administration of the substance. The time from the start of atomization to the onset of marked breathing difficulties (in some cases hypoxic convulsion in the lateral position) is measured and called the latency time. An increase in the latency time after administration of the substance to at least three times the average latency time before administration of the substance is regarded as a protective effect, and the number of protected animals in the group is determined. […]
[…] After 30 minutes, the animals are again exposed to the acetylcholine mist and the latency times are measured. An increase in the latency time to at least three times the length is regarded as a protective effect.

[2] = test system: tracheal rings; assay: bronchospasmolytic effect on the chain of tracheal rings from guinea pigs in vitro; format: cell-based; details: for -lg[EC50 ] / EC50: negative logarithm of EC50 mol/l, 50% of maximum achievable relaxation; for [EC50 ] theophylline/[EC50 ] substance: ratio of EC50 values, theophylline vs substance; for EC50: Cavia porcellus, read-out: -lg[EC50 ] (converted)
Description: The bronchospasmolytic effect of the compounds on the chain of tracheal rings from guinea pigs was tested in vitro as follows:
Thus, a complete dose-effect plot for the test substance is obtained over a period of 20 to 30 minutes. The particular relaxation is expressed as a percentage fraction of the maximum relaxation achievable by administration of (-)isoprenaline (10^-6 mol/l).

[3] = test system: histamine-induced bronchospasm; assay: histamine-induced bronchospasm in anesthetized guinea pigs; format: in vivo; details: for inhibition in vivo at 20 µmol/kg / inhibition in vivo at 60 µmol/kg / inhibition in vivo at 100 µmol/kg / inhibition in vivo at 5 µmol/kg / inhibition in vivo at 10 µmol/kg: Cavia porcellus; for inhibition in vivo at 5 µmol/kg: 5 μmol/kg; for inhibition in vivo at 10 µmol/kg: 10 μmol/kg
Description: One histamine spasm before administration of the substance was compared with several histamine spasms after administration of the substance. The test substances were administered intravenously (i.v.) and/or intrajejunally (i.j.).

[4] = test system: PDE IV; assay: inhibition of PDE IV isolated from human polymorphonuclear neutrophilic cells (PMNs); format: biochemical; details: for PDE IV hum. PMNs -lg[IC50 ]: negative logarithm of IC50, cAMP 0.5 μmol/l; for [IC50 ] PDE III/[IC50 ] PDE IV PMNs: selectivity ratio, PDE III hum. platelets vs PDE IV hum. PMNs
From the text: (§1) The specific inhibition of phosphodiesterase IV (PDE IV=high-affinity cAMP-PDE which cannot be inhibited by cGMP, rolipram-sensitive) is regarded as particularly indicative of an expected bronchospasmolytic and/or antiinflammatory effect. The specificity of the inhibition is moreover described by the ratio [IC50 ]PDE-III /[IC50 ]PDE-IV (PDE III=high-affinity cAMP-PDE which can be inhibited by cGMP) [H. Hidaka et al., Adv. Cycl. Nucl. Res. 13, 145 (1984); TiPS 5, 237 (1984); R. Weishaar et al., J. Med. Chem. 28, (1985); S. A. Harrison et al., Molec. Pharmac. 29, 506 (1986); J. Klein-Tebbe et al., Allergologie 12, 12 (1989); C. Schudt et al., Allergologie 12, 12, (1989); C. Schudt et al., Agents and Action 1991 in press; C. D. Nicholson et al., TiPS 12, (1), 19 (1991)].
(§2) For this reason, the PDE inhibition by the compounds according to the invention was determined on a PDE III isolated from human platelets and on PDE IV isolated from human polymorphonuclear neutrophilic cells (PMNs) and from the dog trachea. Phosphodiesterases III and IV are isolated by chromatography as described by Polson et al., Biochem. Pharmacol. 31, 3403-3406 (1982).
(§3) The substances are dissolved and diluted further in DMSO. 2.1 μl samples from a series of solutions diluted up to 100 fold are mixed with 212 μl of reaction mixture. The reaction mixture contains Hepes (100 mmol/l), DTE (5 mmol/l), MgCl2 (5 mmol/l), CaCl2 (10 μmol/l), BSA fraction V 0.5 mg, ml, cAMP 0.5 μmol/l, 2,8-^3 H-cAMP 250,000 cpm/ml (0.3 μCi/ml, S.A. […]), SV (snake venom) 25 μg/212 μl of test mixture.

[5] = target: T1, PDE III (Homo sapiens, UniProt Q14432); assay: inhibition of PDE III isolated from human platelets; format: biochemical; details: negative logarithm of IC50; cAMP 0.5 μmol/l; read-out: PDE III hum. platelets -lg[IC50 ] (converted)
T1 construct: PDE III isolated from human platelets; from tissue; host or cells: human platelets
From the text: as §1, §2, §3

[6] = Cavia porcellus, 0.5 h, 100 μmol/kg
[7] = 1 h, read-out: % inhibition (0-1 h) of the histamine-induced decrease in Vmax
[8] = 1 h, read-out: % inhibition after 1 h of the histamine-induced decrease in Vmax
[9] = iv, 1 h, read-out: % inhibition (0-1 h) of the histamine-induced decrease in Vmax
[10] = iv, 1 h, read-out: % inhibition after 1 h of the histamine-induced decrease in Vmax
[11] = iv, after 1 h, read-out: % inhibition after 1 h of the histamine-induced decrease in Vmax
[12] = iv, average 0-1 h after administration, read-out: % inhibition (0-1 h) of the histamine-induced decrease in Vmax
[13] = iv, 20 μmol/kg, after 1 h, read-out: % inhibition after 1 h of the histamine-induced decrease in Vmax
[14] = iv, 20 μmol/kg, average 0-1 h after administration, read-out: % inhibition (0-1 h) of the histamine-induced decrease in Vmax

T1 sequence (Q14432 whole entry): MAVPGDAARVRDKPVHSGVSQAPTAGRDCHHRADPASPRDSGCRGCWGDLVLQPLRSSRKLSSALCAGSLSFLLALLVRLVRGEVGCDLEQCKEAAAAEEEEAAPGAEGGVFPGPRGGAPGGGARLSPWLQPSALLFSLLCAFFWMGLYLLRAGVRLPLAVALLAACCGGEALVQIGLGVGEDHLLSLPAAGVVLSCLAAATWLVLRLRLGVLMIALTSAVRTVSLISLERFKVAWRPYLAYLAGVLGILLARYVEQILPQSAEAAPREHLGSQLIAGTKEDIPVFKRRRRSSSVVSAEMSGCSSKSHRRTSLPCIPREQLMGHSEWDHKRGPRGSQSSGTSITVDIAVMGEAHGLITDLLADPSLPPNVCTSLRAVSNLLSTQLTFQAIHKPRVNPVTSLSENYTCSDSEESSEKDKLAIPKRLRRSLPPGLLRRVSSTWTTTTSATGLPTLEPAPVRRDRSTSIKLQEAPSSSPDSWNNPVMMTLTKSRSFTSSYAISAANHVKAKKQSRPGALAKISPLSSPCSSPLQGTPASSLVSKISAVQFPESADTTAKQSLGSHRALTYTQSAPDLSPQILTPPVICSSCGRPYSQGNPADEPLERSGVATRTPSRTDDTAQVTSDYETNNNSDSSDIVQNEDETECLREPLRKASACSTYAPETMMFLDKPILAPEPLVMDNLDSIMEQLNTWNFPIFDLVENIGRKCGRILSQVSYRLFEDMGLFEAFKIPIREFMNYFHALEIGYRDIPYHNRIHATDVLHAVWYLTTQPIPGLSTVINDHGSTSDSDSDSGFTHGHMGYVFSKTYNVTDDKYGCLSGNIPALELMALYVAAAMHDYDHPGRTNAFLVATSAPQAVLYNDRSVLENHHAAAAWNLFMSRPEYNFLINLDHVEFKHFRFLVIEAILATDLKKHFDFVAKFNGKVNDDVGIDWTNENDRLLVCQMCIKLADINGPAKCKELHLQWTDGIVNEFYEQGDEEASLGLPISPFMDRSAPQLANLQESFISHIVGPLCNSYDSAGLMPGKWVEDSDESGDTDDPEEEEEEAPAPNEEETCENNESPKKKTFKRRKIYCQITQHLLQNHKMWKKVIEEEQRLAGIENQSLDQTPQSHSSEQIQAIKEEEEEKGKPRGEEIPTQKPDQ

Compound	[EC50 ] theophylline/[EC50 ] substance [2]	responders at 100 µmol/kg [1, 6]	PDE IV hum. PMNs -lg[IC50 ] [4]	[IC50 ] PDE III/[IC50 ] PDE IV PMNs [4]	IC50 [5]	EC50 [2]	further results
3-amino-6-(4-difluoromethoxy-3-ethoxyphenyl)pyridazine 2-oxide [Serial No. 19]	14.5	–	–	–	–	–	% protective effect ([1]; 100 μmol/kg): 35%; -lg[EC50 ] [2]: 5.03
3-amino-6-(4-difluoromethoxy-3-methoxyphenyl)pyridazine 2-oxide [Serial No. 20]	33.2	–	–	–	–	–	% protective effect ([1]; 100 μmol/kg): 50%; -lg[EC50 ] [2]: 5.39
3-amino-6-(4-difluoromethoxy-3-methoxyphenyl)pyridazine [Serial No. 11]	20.4	–	–	–	–	–	% protective effect ([1]; 30 μmol/kg): 35%; % protective effect ([1]; 100 μmol/kg, listed as 4): 35%; % protective effect ([1]; 100 μmol/kg, listed as 6): 85%; % inhibition after 1 h of the histamine-induced decrease in Vmax ([3]; i.v., 20 μmol/kg, after 1 h): is; % inhibition (0-1 h) of the histamine-induced decrease in Vmax ([3]; i.v., 20 μmol/kg, average 0-1 h after administration): 22%; -lg[EC50 ] [2]: 5.18
COc1cc(-c2ccc(N)nn2)ccc1OC(C)C [Serial No. 5, 3-amino-6-[3-methoxy-4-(1-methylethoxy)phenyl]pyridazine]	–	45%	–	–	–	–	–
Cn1c(=O)c2[nH]cnc2n(C)c1=O [Theophylline, reference compound]	–	20%	3.77	–	–	–	responders at 200 µmol/kg ([1]; Cavia porcellus, 0.5 h, 200 μmol/kg): 40%; responders at 400 µmol/kg ([1]; Cavia porcellus, 0.5 h, 400 μmol/kg): 70%; inhibition in vivo at 20 µmol/kg [3, 7]: 11%; inhibition in vivo at 60 µmol/kg [3, 7]: 37%; inhibition in vivo at 100 µmol/kg [3, 7]: 45%; inhibition in vivo at 20 µmol/kg [3, 8]: 8%; inhibition in vivo at 60 µmol/kg [3, 8]: 42%; inhibition in vivo at 100 µmol/kg [3, 8]: 44%; inhibition in vivo at 20 µmol/kg [3, 9]: 13%; inhibition in vivo at 60 µmol/kg [3, 9]: 25%; inhibition in vivo at 100 µmol/kg [3, 9]: 34%; inhibition in vivo at 20 µmol/kg [3, 10]: 5%; inhibition in vivo at 60 µmol/kg [3, 10]: 12%; inhibition in vivo at 100 µmol/kg [3, 10]: 22%
Nc1ccc(-c2ccc(OC(F)F)c(OC3CCCC3)c2)nn1 [compound 14]	20.4	–	7.15	1466	53.7 µM	6.61 µM	–
CC(C)Oc1cc(-c2ccc(N)nn2)ccc1OC(F)F [compound 15]	–	–	6.78	794	107 µM	–	–
Nc1ccc(-c2ccc(OC(F)F)c(OCC(F)(F)F)c2)nn1 [compound 16]	–	–	6.88	2515	331 µM	–	–
CC(C)COc1cc(-c2ccc(N)nn2)ccc1OC(F)F [compound 17]	–	–	6,96	1466	151 µM	–	–
Nc1ccc(-c2ccc(OC(F)F)c(OCC3CC3)c2)nn1 [compound 18]	–	75%	7.47	4265	145 µM	–	responders at 10 µmol/kg ([1]; Cavia porcellus, 0.5 h): 75%; inhibition in vivo at 5 µmol/kg [3, 11]: 49%; inhibition in vivo at 5 µmol/kg [3, 12]: 40%; inhibition in vivo at 10 µmol/kg [3, 11]: 38%; inhibition in vivo at 10 µmol/kg [3, 12]: 33%; inhibition in vivo at 20 µmol/kg [3, 13]: 35%; inhibition in vivo at 20 µmol/kg [3, 14]: 31%; inhibition in vivo at 10 µmol/kg ([3]; i.j. admin., after 1 h, read-out: % inhibition after 1 h of the histamine-induced decrease in Vmax): 43%; inhibition in vivo at 10 µmol/kg ([3]; i.j. admin., average 0-1 h after administration, read-out: % inhibition (0-1 h) of the histamine-induced decrease in Vmax): 32%
CCOc1ccc(-c2ccc(N)[n+]([O-])n2)cc1OC(F)F [compound 21]	240	–	5.19	6.9	44.7 µM	0.562 µM	–
CC(C)Oc1cc(-c2ccc(N)[n+]([O-])n2)ccc1OC(F)F [compound 22]	44.7	60%	6.26	21.9	12 µM	3.02 µM	–
CC(C)COc1cc(-c2ccc(N)[n+]([O-])n2)ccc1OC(F)F [compound 23]	44.7	–	7.03	1350	126 µM	3.02 µM	–
Nc1ccc(-c2ccc(OC(F)F)c(OC3CCCC3)c2)n[n+]1[O-] [compound 24]	65.5	60%	7.24	832	47.9 µM	2.04 µM	–
Nc1ccc(-c2ccc(OC(F)F)c(OCC(F)(F)F)c2)n[n+]1[O-] [compound 25]	380	70%	6.42	186	70.8 µM	0.355 µM	responders at 10 µmol/kg ([1]; Cavia porcellus, 0.5 h): 45%; inhibition in vivo at 20 µmol/kg [3, 13]: 33%; inhibition in vivo at 20 µmol/kg [3, 14]: 34%
